According to the SangsterLogP compilation:

Test: method code SF-AS, from Ploquin, J.; Sparfel, L.; LeBaut, G.; Floc'h, R.; Welin, L.; Petit, Y.; Henry, N. (1974). Pyrophthalones. III. Properties of gamma-pyrophthalones. Eur J Med Chem, 9(5)526-533.
Conditions: pH 7.4

Row | logD | Structure (SMILES)
1 | 2.64 | CCCN1C=CC(=C2C(=O)c3ccccc3C2=O)C=C1
2 | 2.12 | CCN1C=CC(=C2C(=O)c3ccccc3C2=O)C=C1
3 | 1.36 | O=C1C(=C2C=CN(CC(O)CO)C=C2)C(=O)c2ccccc21 (centres undefined)
4 | 2.11 | COCCN1C=CC(=C2C(=O)c3ccccc3C2=O)C=C1
5 | 2.44 | CC(C)N1C=CC(=C2C(=O)c3ccccc3C2=O)C=C1
6 | 1.6 | CN1C=CC(=C2C(=O)c3ccccc3C2=O)C=C1
7 | 1.75 | CC(O)CN1C=CC(=C2C(=O)c3ccccc3C2=O)C=C1 (centres undefined)
8 | 3.05 | CCCCN1C=CC(=C2C(=O)c3ccccc3C2=O)C=C1
9 | 2.46 | C=CCN1C=CC(=C2C(=O)c3ccccc3C2=O)C=C1
10 | 3.27 | CCCCCN1C=CC(=C2C(=O)c3ccccc3C2=O)C=C1
11 | 2.98 | CC(C)CCCCCN1C=CC(=C2C(=O)c3ccccc3C2=O)C=C1
12 | 2.76 | CC(C)CN1C=CC(=C2C(=O)c3ccccc3C2=O)C=C1

Further lines, the compound ahead of its results:

Row | Structure (SMILES) | logD
13 | O=C1C(=C2C=CN(CCc3ccccc3)C=C2)C(=O)c2ccccc21 | 3.3
14 | CCCCCCCCCN1C=CC(=C2C(=O)c3ccccc3C2=O)C=C1 | 3.45
15 | CC1=CC(=C2C(=O)c3ccccc3C2=O)C=CN1C | 1.9
16 | CCN1C=CC(=C2C(=O)c3ccccc3C2=O)C=C1C | 2.34
17 | CC=CN1C=CC(=C2C(=O)c3ccccc3C2=O)C=C1 | 2.75
18 | O=C1C(=C2C=CN(Cc3ccccc3)C=C2)C(=O)c2ccccc21 | 2.99
19 | CCCN1C=CC(=C2C(=O)c3ccccc3C2=O)C=C1C | 2.63
20 | CC1=CC(=C2C(=O)c3ccccc3C2=O)C=C(C)N1C | 2.5
21 | CC1=CC(=C2C(=O)c3ccccc3C2=O)C=CN1C(C)C | 2.33
22 | C=CCN1C=CC(=C2C(=O)c3ccccc3C2=O)C=C1C | 2.54
23 | CC1=CC(=C2C(=O)c3ccccc3C2=O)C=CN1CC(C)C | 2.82
24 | CC=CN1C=CC(=C2C(=O)c3ccccc3C2=O)C=C1C | 2.6
